Measured values published in BindingDB's records for doi:10.1021/jm0205752 (University of Queensland, 2004).

Biological target: T1, Alpha-2A adrenergic receptor [16-465] (Rattus norvegicus, UniProt P22909)
T1 construct: 16-465
T1 sequence (P22909 whole entry): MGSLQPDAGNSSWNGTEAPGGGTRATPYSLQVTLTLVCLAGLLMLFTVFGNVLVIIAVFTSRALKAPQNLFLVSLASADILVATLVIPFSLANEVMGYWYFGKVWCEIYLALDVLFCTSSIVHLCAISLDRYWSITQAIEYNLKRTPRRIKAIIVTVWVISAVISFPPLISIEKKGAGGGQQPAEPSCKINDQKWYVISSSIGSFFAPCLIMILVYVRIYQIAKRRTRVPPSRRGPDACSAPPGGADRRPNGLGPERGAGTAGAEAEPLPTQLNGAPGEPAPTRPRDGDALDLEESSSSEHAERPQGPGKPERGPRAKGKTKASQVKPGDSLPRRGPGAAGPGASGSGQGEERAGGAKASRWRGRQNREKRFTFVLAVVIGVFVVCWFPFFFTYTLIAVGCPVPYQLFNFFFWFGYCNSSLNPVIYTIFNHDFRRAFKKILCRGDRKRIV
Assay: alpha-Adrenoceptor Radioligand Binding Assay
Conditions: pH 7.7; 25 °C
Experimental: The binding affinity of compound was evaluated using [3H] Clonidine as ligand in competition binding experiments. Nonspecific binding was determined as the concentration of ligand bound in the presence of 2 uM phentolamine. Ki values were determined by the equation: Ki = IC50/(1 + [clonidine]/KD).

## NS(=O)(=O)c1ccc2c(c1)CNCC2 [1,2,3,4-tetrahydroisoquinoline-7-sulfonamide]
  Ki: 100 µM
